Assays:
[1] = biological target: GST tagged wild type TGFβR1 (Homo sapiens (Human), UniProt P36897); assay: HTRF probe-displacement assay, GST tagged wild type TGFβR1; assay type: binding; conditions: GST tagged wild type proteins were used instead of HIS-tagged proteins
Experimental: Compounds were dissolved at 10 mM in dimethylsulfoxide (DMSO) and evaluated at eleven concentrations. IC50 values were derived by non-linear regression analysis.

HIS-TGFβR1 T204D = HIS-TGFβR1 T204D (Homo sapiens (Human), UniProt P36897, T204D); assay: HTRF probe-displacement assay, HIS-TGFβR1 T204D; assay type: binding; conditions: 1 hour at room temperature
Chain of HIS-TGFβR1 T204D (P36897 34-503 T204D): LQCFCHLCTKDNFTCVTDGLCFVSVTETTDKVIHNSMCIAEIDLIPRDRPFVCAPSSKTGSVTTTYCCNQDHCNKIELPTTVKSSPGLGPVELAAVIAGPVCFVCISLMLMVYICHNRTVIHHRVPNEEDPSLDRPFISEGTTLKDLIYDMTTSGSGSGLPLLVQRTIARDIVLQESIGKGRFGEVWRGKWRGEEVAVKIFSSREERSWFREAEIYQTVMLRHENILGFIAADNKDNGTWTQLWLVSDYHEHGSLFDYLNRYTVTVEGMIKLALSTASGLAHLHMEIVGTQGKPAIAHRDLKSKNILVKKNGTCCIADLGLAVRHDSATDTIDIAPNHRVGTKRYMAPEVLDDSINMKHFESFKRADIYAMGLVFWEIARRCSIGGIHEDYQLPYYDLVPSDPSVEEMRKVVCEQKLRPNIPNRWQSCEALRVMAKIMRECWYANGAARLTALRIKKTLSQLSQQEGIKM

Chain of GST tagged wild type TGFβR1 (P36897 34-503): as the sequence (P36897 34-503 T204D) above, with D171T counted along it

| IC50 [1] [nM] | IC50 (HIS-TGFβR1 T204D) [nM] | SMILES |
| --- | --- | --- |
| 6 |  | CN1CCN(Cc2ccn3nc(-c4cccc(C(F)F)n4)nc(Nc4ccncc4F)c23)CC1 [Example 122, N-{2-[6-(difluoromethyl)pyridin-2-yl]-5-[(4-methylpiperazin-1-yl)methyl]pyrrolo[2,1-f][1,2,4]triazin-4-yl}-3-fluoropyridin-4-amine] |
| 1700 |  | Cc1ccnc(-c2nc(Nc3ccncc3F)c3cccn3n2)c1 [Example 62, 3-fluoro-N-[2-(4-methylpyridin-2-yl)pyrrolo[2,1-f][1,2,4]triazin-4-yl]pyridin-4-amine] |
| 2600 |  | O=C(NCCN1CCS(=O)(=O)CC1)c1cnccc1Nc1nc(-c2ccccn2)nn2cccc12 [Example 147, N-[2-(1,1-dioxo-1,4-thiomorpholin-4-yl)ethyl]-4-{[2-(pyridin-2-yl)pyrrolo[2,1-f][1,2,4]triazin-4-yl]amino}pyridine-3-carboxamide] |
| 6.1 |  | Cc1nc(-c2nc(Nc3ccncc3F)c3cccn3n2)ccc1F [Example 74, 3-fluoro-N-[2-(5-fluoro-6-methylpyridin-2-yl)pyrrolo[2,1-f][1,2,4]triazin-4-yl]pyridin-4-amine] |
|  | 75 | Cc1cccc(-c2nc(Nc3ccncc3C(=O)NC3CCOCC3)c3cccn3n2)n1 [Example 164, 4-{[2-(6-methylpyridin-2-yl)pyrrolo[2,1-f][1,2,4]triazin-4-yl]amino}-N-(oxan-4-yl)pyridine-3-carboxamide] |
|  | 1.6 | COCC(=O)Nc1cc(Nc2nc(-c3cccc(C(F)(F)F)n3)nn3cccc23)ccn1 [Example 336, 2-methoxy-N-[4-({2-[6-(trifluoromethyl)pyridin-2-yl]pyrrolo[2,1-f][1,2,4]triazin-4-yl}amino)pyridin-2-yl]acetamide] |
|  | 55 | COc1cccc(-c2nc(Nc3ccncn3)c3cccn3n2)n1 [Example 67, N-[2-(6-methoxypyridin-2-yl)pyrrolo[2,1-f][1,2,4]triazin-4-yl]pyrimidin-4-amine] |
|  | 67 | Cc1cccc(-c2nc(Nc3ccncc3OCCCN3CCOCC3)c3cccn3n2)n1 [Example 222, N-[2-(6-methylpyridin-2-yl)pyrrolo[2,1-f][1,2,4]triazin-4-yl]-3-[3-(morpholin-4-yl)propoxy]pyridin-4-amine] |
|  | 20 | COc1cccc(-c2nc(Nc3ccncc3N)c3cccn3n2)n1 [Example 95, 4-N-[2-(6-methoxypyridin-2-yl)pyrrolo[2,1-f][1,2,4]triazin-4-yl]pyridine-3,4-diamine] |
|  | 230 | COc1cccc(-c2nc(Nc3ccncc3F)c3cc(CN4CCC(F)(F)CC4)cn3n2)n1 [Example 40, N-{6-[(4,4-difluoropiperidin-1-yl)methyl]-2-(6-methoxypyridin-2-yl)pyrrolo[2,1-f][1,2,4]triazin-4-yl}-3-fluoropyridin-4-amine] |
|  | 1 | Fc1cnccc1Nc1nc(-c2ccccn2)nn2ccc(CNCC3CCCO3)c12 (centres unmarked) [Example 247, 3-fluoro-N-(5-{[(oxolan-2-ylmethyl)amino]methyl}-2-(pyridin-2-yl)pyrrolo[2,1-f][1,2,4]triazin-4-yl)pyridin-4-amine] |
|  | 0.39 | Fc1cccc(-c2nc(Nc3ccncc3Cl)c3cccn3n2)n1 [Example 70, 3-chloro-N-[2-(6-fluoropyridin-2-yl)pyrrolo[2,1-f][1,2,4]triazin-4-yl]pyridin-4-amine] |
|  | 120 | COc1cccc(-c2nc(Nc3ccncc3F)c3c(CCN4CCOCC4)ccn3n2)n1 [Example 113, 3-fluoro-N-[2-(6-methoxypyridin-2-yl)-5-[2-(morpholin-4-yl)ethyl]pyrrolo[2,1-f][1,2,4]triazin-4-yl]pyridin-4-amine] |
|  | 0.79 | N#CCCC(=O)Nc1cc(Nc2nc(-c3cccc(C(F)(F)F)n3)nn3cccc23)ccn1 [Example 338, 3-cyano-N-[4-({2-[6-(trifluoromethyl)pyridin-2-yl]pyrrolo[2,1-f][1,2,4]triazin-4-yl}amino)pyridin-2-yl]propanamide] |
|  | 0.3 | O=C(CN1CC[C@@H](O)C1)Nc1cc(Nc2nc(-c3cccc(C(F)(F)F)n3)nn3cccc23)ccn1 [Example 327, 2-[(3R)-3-hydroxypyrrolidin-1-yl]-N-[4-({2-[6-(trifluoromethyl)pyridin-2-yl]pyrrolo[2,1-f][1,2,4]triazin-4-yl}amino)pyridin-2-yl]acetamide] |
|  | 410 | O=C(NC1CCC(F)(F)CC1)c1cnccc1Nc1nc(-c2cccc(C(F)F)n2)nn2cccc12 [Example 201, N-(4,4-difluorocyclohexyl)-4-({2-[6-(difluoromethyl)pyridin-2-yl]pyrrolo[2,1-f][1,2,4]triazin-4-yl}amino)pyridine-3-carboxamide] |
|  | 260 | COc1cccc(-c2nc(Nc3ccncc3F)c3c(C(O)CN4CCC(N(C)C)CC4)ccn3n2)n1 (centres unmarked) [Example 30, 2-[4-(dimethylamino)piperidin-1-yl]-1-{4-[(3-fluoropyridin-4-yl)amino]-2-(6-methoxypyridin-2-yl)pyrrolo[2,1-f][1,2,4]triazin-5-yl}ethan-1-ol] |
|  | 2.3 | CC(C)(O)CNCc1ccn2nc(-c3cccc(C(F)F)n3)nc(Nc3ccncc3F)c12 [Example 116, 1-[({2-[6-(difluoromethyl)pyridin-2-yl]-4-[(3-fluoropyridin-4-yl)amino]pyrrolo[2,1-f][1,2,4]triazin-5-yl}methyl)amino]-2-methylpropan-2-ol] |
|  | 3300 | COc1cccc(-c2nc(Nc3ccnc(NCC(C)(C)O)c3)c3cccn3n2)n1 [Example 133, 1-[(4-{[2-(6-methoxypyridin-2-yl)pyrrolo[2,1-f][1,2,4]triazin-4-yl]amino}pyridin-2-yl)amino]-2-methylpropan-2-ol] |
|  | 15 | Fc1cnccc1Nc1nc(-c2ccnc(C(F)(F)F)n2)nn2cccc12 [Example 100, 3-fluoro-N-{2-[2-(trifluoromethyl)pyrimidin-4-yl]pyrrolo[2,1-f][1,2,4]triazin-4-yl}pyridin-4-amine] |
